According to US12679878B2, “CRF2 receptor agonists and their use in therapy” (SANOFI, priority 2020, dated 2026):
Starred links: 1 amine or outer side, 2 acyl side, 3 side chain; linkers in the order of their positions; H or OH if unused. Non-standard residues stand in square brackets, D forms with d. Residues, ends and D or L forms follow the SMILES beside them. Groups on a side chain read outwards from the residue. *: point of attachment. C18 diacid = O=C(O)CCCCCCCCCCCCCCCCC(=O)*; γGlu = O=C(O)[C@H](CCC(=O)[*:2])N[*:1]; AEEA = NCCOCCOCC(=O)O; Aib = CC(C)(N)C(=O)O

These compounds were tested against T1, human CRF2α receptor (Homo sapiens, UniProt Q13324) (assay: cAMP agonism at human CRF2 α receptor in TeloHEAC cells (Example 7)). Conditions: cAMP HTRF, TeloHEAC cells stably expressing human CRF2 α, 0% HSA; read-out: EC50 [nM], 0% HSA.
T1 construct: expressed in transfected cells; host or cells: TeloHEAC
T1 sequence (Q13324 1-411): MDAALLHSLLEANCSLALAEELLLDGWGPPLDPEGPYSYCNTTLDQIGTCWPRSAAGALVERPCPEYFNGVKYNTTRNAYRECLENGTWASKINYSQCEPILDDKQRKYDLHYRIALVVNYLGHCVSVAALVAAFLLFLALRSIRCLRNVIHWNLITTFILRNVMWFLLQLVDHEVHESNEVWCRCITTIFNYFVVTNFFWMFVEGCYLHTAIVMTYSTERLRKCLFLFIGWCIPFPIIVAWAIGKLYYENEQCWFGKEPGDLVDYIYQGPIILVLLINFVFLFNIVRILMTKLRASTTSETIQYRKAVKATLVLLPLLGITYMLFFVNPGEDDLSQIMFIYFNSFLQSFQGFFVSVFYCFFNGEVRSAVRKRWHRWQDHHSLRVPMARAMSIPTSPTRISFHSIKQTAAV
Format: cell-based
Summary of the method: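 HTRF ratio 665/620 nm, read 1 h after lysis reagents, reports cAMP. Cells: thawed stocks, 2000/well, 30 min RT with compound in HBSS, 20 mM HEPES, 0 or 0.1% HSA, 2 mM IBMX. Activity normalised to UCN2 1000 nM = 100%; EC50 from half-maximal activation.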

EC50 [nM] | SMILES
3.15 | CC[C@H](C)[C@H](N)C(=O)N[C@H](C(=O)N[C@@H](CC(C)C)C(=O)N[C@@H](CO)C(=O)N[C@@H](CC(C)C)C(=O)N[C@@H](CC(=O)O)C(=O)N[C@H](C(=O)N1CCC[C@H]1C(=O)N[C@H](C(=O)N[C@@H](CCCCN)C(=O)N[C@@H](CC(C)C)C(=O)N[C@@H](CCCCNC(=O)COCCOCCNC(=O)COCCOCCNC(=O)CC[C@H](NC(=O)CCCCCCCCCCCCCCCCC(=O)O)C(=O)O)C(=O)N[C@@H](CCCCN)C(=O)NC(C)(C)C(=O)N[C@@H](CC(C)C)C(=O)N[C@@H](CC(C)C)C(=O)N[C@@H](CCC(=O)O)C(=O)N[C@@H](CCC(N)=O)C(=O)N[C@@H](CCC(=O)O)C(=O)N[C@@H](CCCNC(=N)N)C(=O)N[C@@H](CCC(N)=O)C(=O)N[C@@H](CCCCN)C(=O)N[C@@H](CCCCN)C(=O)N[C@@H](CCC(N)=O)C(=O)N[C@@H](CCCNC(=N)N)C(=O)N[C@@H](CCC(=O)O)C(=O)N[C@@H](CCC(N)=O)C(=O)N[C@@H](C)C(=O)N[C@@H](CCC(=O)O)C(=O)N[C@H](C(=O)N[C@@H](CC(N)=O)C(=O)NC(C)(C)C(=O)N[C@@H](CCC(N)=O)C(=O)N[C@H](C(=O)N[C@@H](CC(C)C)C(=O)N[C@@H](C)C(=O)N[C@@H](CCC(N)=O)C(=O)N[C@H](C(N)=O)C(C)C)[C@@H](C)CC)[C@@H](C)O)[C@@H](C)CC)C(C)C)C(C)C [compound 71] (H-IVLSLDVPIKLK([AEEA-AEEA-γGlu-C18 diacid])K[Aib]LLEQERQKKQREQAETN[Aib]QILAQV-NH2; N-terminus assumed)
2.6 | CC[C@H](C)[C@H](N)C(=O)N[C@H](C(=O)N[C@@H](CC(C)C)C(=O)N[C@@H](CO)C(=O)N[C@@H](CC(C)C)C(=O)N[C@@H](CC(=O)O)C(=O)N[C@H](C(=O)N1CCC[C@H]1C(=O)N[C@H](C(=O)N[C@@H](CCCCN)C(=O)N[C@@H](CC(C)C)C(=O)N[C@@H](CCCCNC(=O)COCCOCCNC(=O)COCCOCCNC(=O)CC[C@H](NC(=O)CCCCCCCCCCCCCCCCC(=O)O)C(=O)O)C(=O)N[C@@H](CCC(N)=O)C(=O)N[C@H](C(=O)N[C@@H](CC(C)C)C(=O)N[C@@H](CC(C)C)C(=O)N[C@@H](CCC(=O)O)C(=O)N[C@@H](CCC(N)=O)C(=O)N[C@@H](CCC(=O)O)C(=O)N[C@@H](CCCNC(=N)N)C(=O)N[C@@H](CCC(N)=O)C(=O)N[C@@H](CCCCN)C(=O)N[C@@H](CCCCN)C(=O)N[C@@H](CCC(N)=O)C(=O)N[C@@H](CCCNC(=N)N)C(=O)N[C@@H](CCC(N)=O)C(=O)N[C@@H](CCCCN)C(=O)N[C@@H](C)C(=O)N[C@@H](CCC(=O)O)C(=O)N[C@H](C(=O)N[C@@H](CC(N)=O)C(=O)NC(C)(C)C(=O)N[C@@H](CCC(N)=O)C(=O)N[C@H](C(=O)N[C@@H](CC(C)C)C(=O)N[C@@H](C)C(=O)N[C@@H](CCC(N)=O)C(=O)N[C@H](C(N)=O)C(C)C)[C@@H](C)CC)[C@@H](C)O)[C@@H](C)CC)[C@@H](C)CC)C(C)C)C(C)C [compound 73] (H-IVLSLDVPIKLK([AEEA-AEEA-γGlu-C18 diacid])QILLEQERQKKQRQKAETN[Aib]QILAQV-NH2)
2.12 | CC[C@H](C)[C@H](N)C(=O)N[C@H](C(=O)N[C@@H](CC(C)C)C(=O)N[C@@H](CO)C(=O)N[C@@H](CC(C)C)C(=O)N[C@@H](CC(=O)O)C(=O)N[C@H](C(=O)N1CCC[C@H]1C(=O)N[C@H](C(=O)N[C@@H](CCCCN)C(=O)N[C@@H](CC(C)C)C(=O)N[C@@H](CCCCNC(=O)COCCOCCNC(=O)COCCOCCNC(=O)CC[C@H](NC(=O)CCCCCCCCCCCCCCCCC(=O)O)C(=O)O)C(=O)N[C@@H](CCC(N)=O)C(=O)N[C@H](C(=O)N[C@@H](CC(C)C)C(=O)N[C@@H](CC(C)C)C(=O)N[C@@H](CCC(=O)O)C(=O)N[C@@H](CCC(N)=O)C(=O)N[C@@H](CCC(=O)O)C(=O)N[C@@H](CCCNC(=N)N)C(=O)N[C@@H](CCC(N)=O)C(=O)N[C@@H](CCCCN)C(=O)N[C@@H](CCCCN)C(=O)N[C@@H](CCC(N)=O)C(=O)N[C@@H](CCCNC(=N)N)C(=O)N[C@@H](CCC(=O)O)C(=O)N[C@@H](CCC(N)=O)C(=O)N[C@@H](C)C(=O)N[C@@H](CCC(=O)O)C(=O)N[C@H](C(=O)N[C@@H](CC(N)=O)C(=O)NC(C)(C)C(=O)N[C@@H](CCC(N)=O)C(=O)N[C@H](C(=O)N[C@@H](CC(C)C)C(=O)N[C@@H](CCC(=O)O)C(=O)N[C@@H](CCCNC(=N)N)C(=O)N[C@H](C(N)=O)C(C)C)[C@@H](C)CC)[C@@H](C)O)[C@@H](C)CC)[C@@H](C)CC)C(C)C)C(C)C [compound 74] (H-IVLSLDVPIKLK([AEEA-AEEA-γGlu-C18 diacid])QILLEQERQKKQREQAETN[Aib]QILERV-NH2)
13.4 | CC[C@H](C)[C@H](N)C(=O)N[C@H](C(=O)N[C@@H](CC(C)C)C(=O)N[C@@H](CO)C(=O)N[C@@H](CC(C)C)C(=O)N[C@@H](CC(=O)O)C(=O)N[C@H](C(=O)N1CCC[C@H]1C(=O)N[C@H](C(=O)NCC(=O)N[C@@H](CC(C)C)C(=O)N[C@@H](CCCCNC(=O)COCCOCCNC(=O)COCCOCCNC(=O)CC[C@H](NC(=O)CCCCCCCCCCCCCCCCC(=O)O)C(=O)O)C(=O)N[C@@H](CCC(N)=O)C(=O)N[C@H](C(=O)N[C@@H](CC(C)C)C(=O)N[C@@H](CC(C)C)C(=O)N[C@@H](CCC(=O)O)C(=O)N[C@@H](CCC(N)=O)C(=O)N[C@@H](CCC(=O)O)C(=O)N[C@@H](CCCNC(=N)N)C(=O)N[C@@H](CCC(N)=O)C(=O)N[C@@H](CCCCN)C(=O)N[C@@H](CCCCN)C(=O)N[C@@H](CCC(N)=O)C(=O)N[C@@H](CCCNC(=N)N)C(=O)N[C@@H](CCC(N)=O)C(=O)N[C@@H](CCC(N)=O)C(=O)N[C@@H](C)C(=O)N[C@@H](CCC(=O)O)C(=O)N[C@H](C(=O)N[C@@H](CC(N)=O)C(=O)NC(C)(C)C(=O)N[C@@H](CCC(N)=O)C(=O)N[C@H](C(=O)N[C@@H](CC(C)C)C(=O)N[C@@H](C)C(=O)N[C@@H](CCC(N)=O)C(=O)N[C@H](C(N)=O)C(C)C)[C@@H](C)CC)[C@@H](C)O)[C@@H](C)CC)[C@@H](C)CC)C(C)C)C(C)C [compound 76] (H-IVLSLDVPIGLK([AEEA-AEEA-γGlu-C18 diacid])QILLEQERQKKQRQQAETN[Aib]QILAQV-NH2)
10.6 | CC[C@H](C)[C@H](N)C(=O)N[C@H](C(=O)N[C@@H](CC(C)C)C(=O)N[C@@H](CO)C(=O)N[C@@H](CC(C)C)C(=O)N[C@@H](CC(=O)O)C(=O)N[C@H](C(=O)N1CCC[C@H]1C(=O)N[C@H](C(=O)N[C@@H](CCCCN)C(=O)N[C@@H](CC(C)C)C(=O)N[C@@H](CCCCNC(=O)COCCOCCNC(=O)COCCOCCNC(=O)CC[C@H](NC(=O)CCCCCCCCCCCCCCCCC(=O)O)C(=O)O)C(=O)N[C@@H](CCC(N)=O)C(=O)N[C@H](C(=O)N[C@@H](CC(C)C)C(=O)N[C@@H](CC(C)C)C(=O)N[C@@H](CCC(=O)O)C(=O)N[C@@H](CCC(N)=O)C(=O)N[C@@H](CCC(=O)O)C(=O)N[C@@H](CCCNC(=N)N)C(=O)N[C@@H](CCC(N)=O)C(=O)N[C@@H](CCCCN)C(=O)N[C@@H](CCCCN)C(=O)N[C@@H](CCC(N)=O)C(=O)N[C@@H](CCCNC(=N)N)C(=O)N[C@@H](CCC(=O)O)C(=O)N[C@@H](CCC(N)=O)C(=O)N[C@@H](C)C(=O)N[C@@H](CCC(=O)O)C(=O)N[C@H](C(=O)N[C@@H](CC(N)=O)C(=O)NC(C)(C)C(=O)N[C@@H](CCC(N)=O)C(=O)N[C@H](C(=O)N[C@@H](CC(C)C)C(=O)N[C@@H](C)C(=O)N[C@@H](CCC(N)=O)C(=O)N[C@H](C(N)=O)C(C)C)[C@@H](C)CC)[C@@H](C)O)[C@@H](C)CC)[C@@H](C)O)C(C)C)C(C)C [compound 78] (H-IVLSLDVPTKLK([AEEA-AEEA-γGlu-C18 diacid])QILLEQERQKKQREQAETN[Aib]QILAQV-NH2)
10.1 | CC[C@H](C)[C@H](N)C(=O)N[C@H](C(=O)N[C@@H](CC(C)C)C(=O)N[C@@H](CO)C(=O)N[C@@H](CC(C)C)C(=O)N[C@@H](CC(=O)O)C(=O)N[C@H](C(=O)N1CCC[C@H]1C(=O)N[C@H](C(=O)N[C@@H](CCCCN)C(=O)N[C@@H](CC(C)C)C(=O)N[C@@H](CCCCNC(=O)COCCOCCNC(=O)COCCOCCNC(=O)CC[C@H](NC(=O)CCCCCCCCCCCCCCCCC(=O)O)C(=O)O)C(=O)N[C@@H](CCC(N)=O)C(=O)N[C@H](C(=O)N[C@@H](CC(C)C)C(=O)N[C@@H](CC(C)C)C(=O)N[C@@H](CCCCN)C(=O)N[C@@H](CCC(N)=O)C(=O)N[C@@H](CCC(=O)O)C(=O)N[C@@H](CCCNC(=N)N)C(=O)N[C@@H](CCC(N)=O)C(=O)N[C@@H](CCCCN)C(=O)N[C@@H](CCCCN)C(=O)NC(C)(C)C(=O)N[C@@H](CCCNC(=N)N)C(=O)N[C@@H](CCC(=O)O)C(=O)N[C@@H](CCC(N)=O)C(=O)N[C@@H](C)C(=O)N[C@@H](CCC(=O)O)C(=O)N[C@H](C(=O)N[C@@H](CC(N)=O)C(=O)N[C@H](C(=O)N[C@@H](CCCNC(=N)N)C(=O)N[C@H](C(=O)N[C@@H](CC(C)C)C(=O)N[C@@H](CCC(=O)O)C(=O)N[C@@H](CCCNC(=N)N)C(=O)N[C@H](C(N)=O)C(C)C)[C@@H](C)CC)C(C)C)[C@@H](C)O)[C@@H](C)CC)[C@@H](C)O)C(C)C)C(C)C [compound 82] (H-IVLSLDVPTKLK([AEEA-AEEA-γGlu-C18 diacid])QILLKQERQKK[Aib]REQAETNVRILERV-NH2)
